Measured values as given in ChEMBL document CHEMBL1151069 (Bioorg Med Chem Lett, 1996).
Positions of bridges follow the written chain, without caps; N, C: chain ends. Residues, ends and D or L forms follow the SMILES beside them.

Key:
Endothelin-1 receptor = target: T1, Endothelin-1 receptor (Bos taurus, UniProt P21450); assay: Binding activity against Endothelin A receptor expressed from bovine lung membrane preparation; format: tissue-based
T1 sequence (P21450 whole entry): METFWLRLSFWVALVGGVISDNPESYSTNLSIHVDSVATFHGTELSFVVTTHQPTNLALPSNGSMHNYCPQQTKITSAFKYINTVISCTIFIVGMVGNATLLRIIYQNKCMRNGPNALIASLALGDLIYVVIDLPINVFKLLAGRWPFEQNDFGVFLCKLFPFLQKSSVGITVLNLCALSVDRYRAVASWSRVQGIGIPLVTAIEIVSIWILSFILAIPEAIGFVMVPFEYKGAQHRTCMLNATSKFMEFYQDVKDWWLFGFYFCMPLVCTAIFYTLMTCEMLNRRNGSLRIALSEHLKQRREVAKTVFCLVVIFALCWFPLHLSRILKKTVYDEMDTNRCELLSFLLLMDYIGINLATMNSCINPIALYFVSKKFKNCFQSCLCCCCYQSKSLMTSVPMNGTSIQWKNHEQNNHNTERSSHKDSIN

[1] = target: T2, Endothelin receptor type B (Bos taurus, UniProt P28088); assay: Binding activity against Endothelin B receptor expressed from bovine cerebellum membrane preparation; format: tissue-based
T2 sequence (P28088 whole entry): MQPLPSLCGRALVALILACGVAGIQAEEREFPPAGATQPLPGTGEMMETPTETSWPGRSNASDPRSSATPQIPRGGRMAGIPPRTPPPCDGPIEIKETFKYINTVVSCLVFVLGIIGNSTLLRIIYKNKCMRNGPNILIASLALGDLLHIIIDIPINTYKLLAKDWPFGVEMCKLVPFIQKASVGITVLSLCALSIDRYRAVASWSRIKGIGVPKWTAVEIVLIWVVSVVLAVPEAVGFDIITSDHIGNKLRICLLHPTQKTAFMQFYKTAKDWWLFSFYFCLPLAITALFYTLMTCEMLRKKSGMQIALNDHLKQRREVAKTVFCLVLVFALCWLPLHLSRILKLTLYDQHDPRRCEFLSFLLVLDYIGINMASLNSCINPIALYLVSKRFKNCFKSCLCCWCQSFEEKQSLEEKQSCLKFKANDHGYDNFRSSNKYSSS

Question: For C[C@@H]1NC(=O)[C@@H]([C@@H](C)O)NC(=O)CNC(=O)[C@@H](Cc2cnc[nH]2)NC(=O)[C@H](Cc2c[nH]c3ccccc23)NC(=O)[C@@H](CC(N)=O)NC(=O)CNC(=O)C[C@H](C(=O)N[C@@H](Cc2c[nH]c3ccccc23)C(=O)N[C@@H](Cc2ccccc2)C(=O)N[C@@H](Cc2ccccc2)C(=O)N[C@@H](CC(N)=O)C(=O)N[C@@H](Cc2ccc(O)cc2)C(=O)N[C@@H](Cc2ccc(O)cc2)C(=O)N[C@@H](Cc2c[nH]c3ccccc23)C(=O)O)NC(=O)[C@H]2CCCN2C1=O, which IC50 (Endothelin-1 receptor) is on record?
Answer: The IC50 was greater than 98 nM.

Question: For C[C@@H]1NC(=O)[C@H]([C@@H](C)O)NC(=O)CNC(=O)[C@H](Cc2c[nH]cn2)NC(=O)[C@H](Cc2c[nH]c3ccccc23)NC(=O)[C@H](CC(N)=O)NC(=O)CNC(=O)C[C@@H](C(=O)N[C@@H](Cc2c[nH]c3ccccc23)C(=O)N[C@@H](Cc2ccccc2)C(=O)N[C@@H](Cc2ccccc2)C(=O)N[C@@H](CC(N)=O)C(=O)N[C@@H](Cc2ccc(O)cc2)C(=O)N[C@@H](Cc2ccc(O)cc2)C(=O)N[C@@H](Cc2ccc3ccccc3c2)C(=O)O)NC(=O)[C@@H]2CCCN2C1=O, which IC50 [1] is on record?
Answer: The IC50 was 6.3 nM.

Question: C[C@@H]1NC(=O)[C@@H]([C@@H](C)O)NC(=O)CNC(=O)[C@@H](Cc2c[nH]cn2)NC(=O)[C@H](Cc2c[nH]c3ccccc23)NC(=O)[C@@H](CC(N)=O)NC(=O)CNC(=O)C[C@H](C(=O)N[C@@H](Cc2c[nH]c3ccccc23)C(=O)N[C@@H](Cc2ccccc2)C(=O)N[C@@H](Cc2ccccc2)C(=O)N[C@@H](CC(N)=O)C(=O)N[C@@H](Cc2ccc(O)cc2)C(=O)N[C@H](Cc2ccc(O)cc2)C(=O)N[C@@H](Cc2c[nH]c3ccccc23)C(=O)O)NC(=O)[C@H]2CCCN2C1=O was tested. Which IC50 (Endothelin-1 receptor) did it give?
Answer: The IC50 was greater than 98 nM.

Question: What does the source list for C[C@@H]1NC(=O)[C@H]([C@@H](C)O)NC(=O)CNC(=O)[C@H](Cc2c[nH]cn2)NC(=O)[C@H](Cc2c[nH]c3ccccc23)NC(=O)[C@H](CC(N)=O)NC(=O)CNC(=O)C[C@@H](C(=O)N[C@@H](Cc2c[nH]c3ccccc23)C(=O)N[C@@H](Cc2ccccc2)C(=O)N[C@@H](Cc2ccccc2)C(=O)N[C@@H](CC(N)=O)C(=O)N[C@@H](Cc2ccc(O)cc2)C(=O)N[C@@H](Cc2ccc(O)cc2)C(=O)NCC(=O)O)NC(=O)[C@@H]2CCCN2C1=O (GNWHGTAPDWFFNYYG-OH; lactam N-9)?
Answer: IC50 (Endothelin-1 receptor): > 520 nM; IC50 [1]: 120 nM
